# Measured values: patent publication US20240382443A1, “GENERATION OF S-NITROSOACETYLCYSTEINE” (The UAB Research Foundation, priority 2023, published 2024)
# Columns and labels:
# normotensive rats [1] = test: Mean arterial pressure after oral gavage in normotensive rats; type: in vivo; details: 0.5 mL
# Method: The mean arterial pressure (MAP) was continually monitored.
# The MAP in rats was measured as described for sublingual administration. After baseline blood pressure was measured, 0.5 mL of nitrite alone, NAC alone, or the nitrite−NAC mixture was administered by gavage.
# normotensive rats [2] = test: Femoral mean arterial pressure after sublingual administration in normotensive rats; type: in vivo; details: 0.2, 0.4 or 0.8 mg nitrite/kg with 10 mg NAC
# Method: Normotensive rats were anesthetized with isoflurane. The femoral artery was catheterized with a Micro-Tip Catheter Transducer (AD Instruments, Houston, TX) for monitoring of blood pressure. Once the baseline blood pressure was stabilized, at approximately 30 minutes, rats were treated sublingually with 50 μL of SNOAC generated by reacting 0.2 mg, 0.4 mg, or 0.8 mg nitrite/kg body weight with a fixed concentration of 10 mg NAC (FIG. 5). Control rats were treated with nitrite or NAC alone. The mean arterial pressure (MAP) was continually monitored.
# [3] = Plasma and organ RSNOs after oral gavage of nitrite in neutral NAC; type: in vivo, rats; details: single agent alone, nitrite 1.5 mg/kg, NAC 50 mg/kg
# Method: […] BP was measured by femoral intra-arterial catheterization. Chronic studies were carried out in an L-NAME (eNOS inhibitor) induced hypertensive mouse model. Mice were randomized into five groups 1) control, 2) control L-NAME (0.1 g/L), 3) L-NAME+nitrite (20 mg/L), 4) L-NAME+nitrite (10 mg/L)+NAC (0.5 g/L), 5) L-NAME+nitrite (20 mg/L)+NAC 0.5 g/L) in drinking water for 2 months. Plasma S-nitrosothiols blood pressure (tail cuff method), arterial stiffness (Doppler method) were determined.
# [4] = system: rats with severe Sugen-hypoxia-induced pulmonary hypertension; test: Right ventricular systolic pressure (RVSP) after inhaled aerosol in Sugen-hypoxia pulmonary hypertension rats; type: in vivo, Sprague Dawley rats
# Method: Stock SNOAC was prepared by reacting an appropriate amount of sodium nitrite and NAC in water just before use. The pH was adjusted to 7.0 with alkaline solution and then transferred to an Aeroneb Nebulizer (Kent Scientific). Severe PH was induced in Sprague Dawley rats by subcutaneous injection of vascular endothelial growth factor receptor antagonist Sugen 5416 followed by exposure to hypoxia (10% O2) for 3 weeks and normoxia for 4 weeks. Right ventricular systolic pressure (RVSP) was measured invasively in a closed-chest, spontaneously breathing rat model as an indicator of pulmonary arterial pressure. Rats were anesthetized with 1.5% isoflurane in air with a flow rate of 2 L/min. A blood pressure catheter was inserted into the right ventricle through the jugular vein, and baseline RVSP was measured. After the pressure stabilized, the aerosolized drug was introduced into the isoflurane line for 5 minutes.
# [5] = system: mice with L-NAME-induced systemic hypertension; test: L-NAME-induced systemic hypertension in mice, drinking water; type: in vivo; details: L-NAME-treated mice, NAC 0.5 g/L or nitrite 20 mg/L alone, 2 months
# Method: L-NAME (N-nitro-L-arginine methyl ester) is an inhibitor of eNOS enzyme activity. Administering L-NAME in the drinking water of animals induces systemic hypertension by decreasing NO synthesis in blood vessels. In this study, mice were fed L-NAME alone (0.1 g/L) or L-NAME+NAC (0.5 g/L), L-NAME+nitrite (20 mg/L), or L-NAME+NAC with one of two nitrite doses (i.e., 10 mg/L or 20 mg/L) in drinking water for 2 months. Mean arterial blood pressure was measured by the tail-cuff method (Kent Scientific, Torrington, CT).
# Acute doses of nitrite (0.1 to 1 mg/kg B. wt.) or NAC (10 to 50 mg/kg B. wt.) alone or in combination were administered sublingually or by oral gavage to anesthetized Wistar rats and blood collected at varying time points for measurement of total plasma SNOs by chemiluminescence method. BP was measured by femoral intra-arterial catheterization. Chronic studies were carried out in an L-NAME (eNOS inhibitor) induced hypertensive mouse model. Mice were randomized into five groups 1) control, 2) control L-NAME (0.1 g/L), 3) L-NAME+nitrite (20 mg/L), 4) L-NAME+nitrite (10 mg/L)+NAC (0.5 g/L), 5) L-NAME+nitrite (20 mg/L)+NAC 0.5 g/L) in drinking water for 2 months. Plasma S-nitrosothiols blood pressure (tail cuff method), arterial stiffness (Doppler method) were determined.
# [6] = system: Spontaneously Hypertensive Rats (SHR); test: Tail-cuff MAP in SHR and WKY rats, drinking water; type: in vivo; details: NAC 1.2 g/L, nitrite 60 mg/L in drinking water, end of 3 months, versus SHR control
# Method: SHR rats are a well-established model used to study essential hypertension. Normotensive Wistar Kyoto rats (WKY) were used as a control group. Rats were fed with NAC (1.2 g/L), nitrite (60 mg/L), or a combination of the two in drinking water for 3 months. Mean arterial blood pressure was measured by the tail-cuff method once each month.
# eNOS^-/- mice = test: Tail-cuff MAP in eNOS-/- hypertensive mice, drinking water; type: in vivo; details: nitrite 50 mg/L, NAC 500 mg/L in drinking water for 2 months, versus eNOS-/- control
# Method: 15-week-old wild-type (WT) and eNOS^-/- mice were divided into 5 groups. (1) WT control, (2) eNOS^-/- control, (3) eNOS^-/-+nitrite, (4) eNOS^-/-+NAC, and (5) eNOS^-/-+nitrite+NAC. NAC was dissolved in the drinking water, and pH was adjusted to 7.0 to prevent initial nitrite reaction with NAC. The mice were given pharmacological doses of nitrite (50 mg/L) and NAC (500 mg/L) individually or in combination for 2 months.
# [7] = Plasma S-nitrosothiols and nitrite after sublingual SNOAC in rats; type: in vivo
# Method: Because the chemicals cannot be placed in the buccal cavity of experimental animals, SNOAC was prepared in a test tube just before use and then placed in the sublingual space. Normotensive rats were anesthetized and the femoral artery was cannulated to collect blood. Stock SNOAC at 30 μmoles/mL was prepared by reacting sodium nitrite with NAC at the molar ratio of 1:2 in water just before use. It is believed that all of the nitrite is converted to SNOAC under these conditions. After baseline blood samples were collected in heparinized tubes, approximately 50 μL of SNOAC solution (0.4 mg nitrite and 1.87 mg NAC/kg body weight) was placed under the tongue of anesthetized rats. Blood was collected at 10-minute intervals. The plasma was separated, and nitrite and total S-nitrosothiols in plasma were determined. […] There was no change in plasma nitrite levels.
# In this study, the sublingual and buccal cavity medication route of SNOAC generation and administration for acute dosing was first examined. A dose of NAC and sodium nitrite with 25 μL of water was placed under the tongue of mice or rats. Specifically, a dose of 0.1 mg of nitrite and 10 mg of NAC was placed under the tongue of the subject, blood was collected varying time points, and total S-nitrosothiols (SNO) were measured by a chemiluminescence method. […]
# [8] = Total S-nitrosothiols in blood after sublingual nitrite and NAC in mice; type: in vivo; details: 0.1 mg nitrite and 10 mg NAC
# Method: FIG. 14 is a graphical representation of the transfer of the SNOAC that is generated in the sublingual space to blood circulation in mice. The concentration of total S-nitrosothiols at 1, 30 min., and 60 min. was determined after mice were sublingually administered 0.1 mg nitrite and 10 mg NAC in 50 μL of water, generating SNOAC.
# In this study, the sublingual and buccal cavity medication route of SNOAC generation and administration for acute dosing was first examined. A dose of NAC and sodium nitrite with 25 μL of water was placed under the tongue of mice or rats. Specifically, a dose of 0.1 mg of nitrite and 10 mg of NAC was placed under the tongue of the subject, blood was collected varying time points, and total S-nitrosothiols (SNO) were measured by a chemiluminescence method. […] As shown in FIG. 14 for mice and FIG. 4 for rats, SNOAC is generated in the buccal cavity and absorbed into circulation.
# [9] = RSNO decomposition in water monitored by spectra; type: physicochemical; details: over 15 hours; from 15 mM sodium nitrite and 60 mM N-acetylcysteine in water
# Method: FIG. 11 is a graphical representation of generation and decomposition of S-nitroso-N-acetylcysteine (RSNO). In the left panel, RSNO generation is show when 15 mM sodium nitrite is reacted with 60 mM N-acetylcysteine (RSH) in water. All nitrite is converted instantly to RSNO. In the right panel, RSNO decomposition is monitored by recording spectra at 1.5 hour intervals over 15 hours. Approximately 50% of the RSNO was decomposed over the 15 hours.
# Nitrite is converted to […] by reacting with RSH in water. RSNOs have potent vasodilatory, anti-inflammatory, and antiplatelet activities. As shown by the comparison of generation of RSNO in FIG. 11, left panel, with degradation in FIG. 11, right panel, the instability of RSNO after preparation is a major hindrance to use them as NO donors to restore the NO bio-availability that decrease with aging and pathophysiological conditions of cardiovascular diseases. Therefore, RSNOs have proven easy to prepare, but not typically stable after preparation.
# cardiac proteins = test: SNO-RAC proteomics of rat heart tissue; type: in vivo, rats; details: single oral gavage dose, hearts collected after 1 hour
# Method: FIG. 12 is a graphical representation of proteomics analysis of rat heart tissue. A single dose of nitrite and NAC at neutral pH were administered by oral gavage to rats. Rats were sacrificed after 1 hour and the hearts were collected. Total RSNO sites were identified using the a SNO-RAC (resin assisted capture) protocol. Proteomics was performed using liquid chromatography-tandem mass spectrometry (LC-MS/MS) analysis.
# [10] = system: angiotension-2—induced acute PH; test: Angiotensin-2-induced acute pulmonary hypertension in control rats; type: in vivo; details: inhalation
Compound,MAP (normotensive rats [1]),mean arterial pressure (MAP) (normotensive rats [2]),effect on RVSP of inhaled precursor molecules alone ([4]; hypertensive rats),MAP [5],MAP [6],MAP (eNOS^-/- mice),RVSP course after cessation of inhalation ([4]; hypertensive rats),further results
"CC(=O)N[C@@H](CS)C(=O)O [NAC, N-acetylcysteine]",neither nitrite nor NAC alone altered the blood pressure,no change,no effect,no significant change,modestly decreased,no significant change,,increase in plasma RSNOs [3]: no change
"CC(=O)N[C@@H](CSN=O)C(=O)O [SNOAC, S-nitroso-N-acetylcysteine]",,,,,,,"slowly increased over the following 40 minutes, while still remaining lower than the baseline value","plasma nitrite levels ([7]; after sublingual SNOAC): no change; total plasma S-nitrosothiols (SNO) over time ([7]; rats, sublingual): increased with increasing the time; total S-nitrosothiols (SNO) over time [8]: increased with increasing the time; RSNO decomposed [9]: Approximately 50%; RVSP change in control animals ([4]; control animals, baseline RVSP 30 mmHg): did not change significantly; RVSP after another dose of aerosolized drug after 40 minutes ([4]; hypertensive rats): sustained decrease in RVSP that was longer than after the initial dose; time the RVSP decrease was sustained at the same level after cessation of drug ([4]; hypertensive rats): 5 min; RVSP after inhalation of aerosolized drug ([4]; hypertensive rats, baseline RVSP 125 mmHg, inhalation for 5 minutes): 96 mmHg; S-nitrosylation of cardiac proteins (cardiac proteins): increased with increasing the dose of RSNO; life span (SNOAC life span): about 30 min; angiotensin-2-induced acute PH [10]: significantly decreased"
nitric oxide [NO gas],,,,,,,rapidly bounced back to baseline after cessation,"RVSP during inhalation of NO gas ([4]; hypertensive rats, 30 ppm inhaled for 5 minutes): rapid decrease in RVSP"
"O=NO [nitrite, sodium nitrite]",neither nitrite nor NAC alone altered the blood pressure,no change,no effect,no significant change,no effect,no significant change,,effect on PH at higher doses ([4]; even at higher doses): No effect
